Data set [1] concerns the target T1, Btk enzyme (His-tagged, full-length) (Homo sapiens, UniProt Q06187).
T1 construct: 5-10 nM Btk enzyme (His-tagged, full-length); His
Briefly: Bruton's Tyrosine Kinase (Btk) Inhibition Assay (33P filtration capture). The format is biochemical. The settings on record: Bruton's tyrosine kinase Assay (Example 34), 100 μM ATP. The text has this:
Bruton's Tyrosine Kinase (Btk) Inhibition Assay
The assay is a capture of radioactive ^33P phosphorylated product through filtration. The interactions of Btk, biotinylated SH2 peptide substrate (Src homology), and ATP lead to phosphorylation of the peptide substrate. Biotinylated product is bound streptavidin sepharose beads. All bound, radiolabeled products are detected by scintillation counter.
Plates assayed are 96-well polypropylene (Greiner) and 96-well 1.2 μm hydrophilic PVDF filter plates (Millipore).
IC50 determinations are calculated from 10 data points per compound utilizing data produced from a standard 96-well plate assay template. One control compound and seven unknown inhibitors were tested on each plate and each plate was run twice. […] The control compound was staurosporine. Background was counted in the absence of peptide substrate. Total activity was determined in the presence of peptide substrate. The following protocol was used to determine Btk inhibition.
1) Sample preparation: The test compounds were diluted at half-log increments in assay buffer (imidazole, glycerol-2-phosphate, EGTA, MnCl2, MgCl2, BSA).
2) Bead preparation • a.) rinse beads by centrifuging at 500 g • b.) reconstitute the beads with PBS and EDTA to produce a 20% bead slurry
3) Pre-incubate reaction mix without substrate (assay buffer, DTT, ATP, ^33P ATP) and mix with substrate (assay buffer, DTT, ATP, ^33P ATP, peptide substrate) 30° C. for 15 min.
4) To start assay, pre-incubate 10 μL Btk in enzyme buffer (imidazole, glycerol-2-phosphate, BSA) and 10 μL of test compounds for 10 min at RT.
5) Add 30 μL reaction mixture without or with substrate to Btk and compounds.
6) Incubate 50 μL total assay mix for 30 min at 30° C.
7) Transfer 40 μL of assay to 150 μL bead slurry in filter plate to stop reaction.
8) Wash filter plate after 30 min, with following steps • a. 3×250 μL NaCl • b. 3×250 μL NaCl containing 1% phosphoric acid • c. 1×250 μL H2O
9) Dry plate for 1 h at 65° C. or overnight at RT
10) Add 50 μL microscint-20 and count ^33P cpm on scintillation counter.
Calculate percent activity from raw data in cpm percent activity=(sample−bkg)/(total activity−bkg)×100
Calculate IC50 from percent activity, using one-site dose response sigmoidal model y=A+((B−A)/(1+((x/C)^D))))

T1 sequence (Q06187 whole entry): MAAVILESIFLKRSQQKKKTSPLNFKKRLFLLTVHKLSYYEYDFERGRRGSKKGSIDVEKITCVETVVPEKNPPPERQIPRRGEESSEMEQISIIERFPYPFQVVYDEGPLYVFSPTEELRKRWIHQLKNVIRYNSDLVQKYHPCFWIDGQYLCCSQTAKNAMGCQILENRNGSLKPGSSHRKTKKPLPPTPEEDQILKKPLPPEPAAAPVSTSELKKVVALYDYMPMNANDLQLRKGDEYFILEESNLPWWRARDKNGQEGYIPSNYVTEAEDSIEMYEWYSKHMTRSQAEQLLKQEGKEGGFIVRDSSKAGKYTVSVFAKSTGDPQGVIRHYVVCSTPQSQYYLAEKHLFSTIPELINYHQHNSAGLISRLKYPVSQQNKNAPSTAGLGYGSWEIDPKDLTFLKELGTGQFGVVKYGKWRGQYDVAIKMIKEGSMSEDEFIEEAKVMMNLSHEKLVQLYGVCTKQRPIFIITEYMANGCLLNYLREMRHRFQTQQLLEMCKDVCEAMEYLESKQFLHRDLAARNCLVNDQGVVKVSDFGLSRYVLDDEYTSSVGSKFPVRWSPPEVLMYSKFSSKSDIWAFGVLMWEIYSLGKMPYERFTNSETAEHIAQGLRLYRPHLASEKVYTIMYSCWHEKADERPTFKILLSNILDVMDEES

What is called IC50 is the concentration that inhibits the measured activity by half. Low values mean greater potency in that assay, high ones weaker potency in that assay. As usually defined, the melting point is the temperature of the solid-liquid transition. `Cc1c(NC(=O)c2ccc(C(C)(C)C)cc2)cccc1-c1cc(Nc2ccc(C(=O)N3CCOCC3)cn2)c(=O)n(C)n1` [Compound I-1, 4-tert-Butyl-N-(2-methyl-3-{1-methyl-5-[5-(morpholine-4-carbonyl)-pyridin-2-ylamino]-1,6-oxo-dihydro-pyridazin-3-yl}-phenyl)-benzamide] gave a melting point of 148 to 150 °C. In addition, the IC50 in data set [1] (Table I pyridazinones) is < 10 nM.

Compound `Cc1c(NC(=O)c2ccc(C(C)(C)C)cc2)cccc1-c1cc(Nc2ccc(C(=O)N3CCN(C)CC3)cn2)c(=O)n(C)n1` [Compound I-2] showed a melting point of 158 to 160 °C. The compound also showed an IC50 in data set [1] (Table I pyridazinones) of 14 nM.

Compound `Cc1c(NC(=O)c2ccc(C(C)(C)C)cc2)cccc1-c1cc(Nc2ccccn2)c(=O)n(C)n1` [Compound I-3] displayed a melting point of 248.5 to 249.3 °C. In data set [1] (Table I pyridazinones), this compound showed an IC50 of 94 nM.

Compound `Cc1c(NC(=O)c2ccc(C(C)(C)C)cc2)cccc1-c1cc(Nc2ccncn2)c(=O)n(C)n1` [Compound I-4] displayed a melting point of 249 to 250 °C. In addition, half-maximal inhibition in data set [1] (Table I pyridazinones) (IC50) was put at 208 nM.

For `Cc1c(NC(=O)c2ccc(C(C)(C)O)cc2)cccc1-c1cc(Nc2ccc(C(=O)N3CCN(C)CC3)cn2)c(=O)n(C)n1` [Compound I-5], the melting point was 167.5 to 168.5 °C. The same compound had an IC50 in data set [1] (Table I pyridazinones) of 122 nM.

In the case of `Cc1c(NC(=O)N2CCN(C(C)(C)C)CC2)cccc1-c1cc(Nc2ccc(C(=O)N3CCOCC3)cn2)c(=O)n(C)n1` [Compound I-6, 4-tert-Butyl-piperazine-1-carboxylic acid (2-methyl-3-{1-methyl-5-[5-(morpholine-4-carbonyl) -pyridin-2-ylamino]-6-oxo-1,6-dihydro-pyridazin-3-yl}-phenyl)-amide], the melting point lay within 166 to 169 °C. For the same compound, in data set [1] (Table I pyridazinones), half-maximal inhibition (IC50) was put at 15500 nM.

Regarding `COc1cc(C(C)(C)C)ccc1C(=O)Nc1cccc(-c2cc(Nc3ccc(C(=O)N4CCOCC4)cn3)c(=O)n(C)n2)c1C` [Compound I-7], the melting point is 156.5 to 157 °C. The compound further yielded an IC50 in data set [1] (Table I pyridazinones) of 272 nM.

Compound `Cc1c(NC(=O)N2CC(OC(C)(C)C)C2)cccc1-c1cc(Nc2ccc(C(=O)N3CCOCC3)cn2)c(=O)n(C)n1` [Compound I-10, 3-tert-Butoxy-azetidine-1-carboxylic acid(2-methyl-3-{1-methyl-5-[5-(morpholine-4-carbonyl) -pyridin-2-ylamino]-6-oxo-1,6-dihydro-pyridazin-3-yl}-phenyl)-amide] displayed a melting point of 171 to 172 °C. The compound also showed an IC50 in data set [1] (Table I pyridazinones) of 228 nM.

`Cc1c(NC(=O)c2ccc(C(C)(C)C)cc2)cccc1-c1cc(Nc2ccnc(N3CCN(C)CC3)n2)c(=O)n(C)n1` [Compound I-11]: the melting point is 220 to 222 °C. Inhibition in data set [1] (Table I pyridazinones) was half-maximal at 78 nM (IC50).

Turning to `CSc1nccc(Nc2cc(-c3cccc(NC(=O)c4ccc(C(C)(C)C)cc4)c3C)nn(C)c2=O)n1` [Compound I-12], the melting point was in the range of 224 to 225 °C. This compound also registered an IC50 in data set [1] (Table I pyridazinones) of 51 nM.

`Cc1c(NC(=O)c2ccc(C(C)(C)C)cc2)cccc1-c1cc(Nc2ccnc(N3CCOCC3)n2)c(=O)n(C)n1` [Compound I-14] returned a melting point of 211 to 213 °C. Also, the midpoint of inhibition in data set [1] (Table I pyridazinones), the IC50, lay at 249 nM.

Take `Cn1nc(-c2cccc(NC(=O)c3ccc(C(C)(C)O)cc3)c2)cc(Nc2ccc(C(=O)N3CCOCC3)cn2)c1=O` [Compound I-16]: the melting point lay in the range of 172 to 173 °C. The compound further registered an IC50 in data set [1] (Table I pyridazinones) of 120 nM.

As for `CNC(=O)Nc1cc(-c2cccc(NC(=O)c3ccc(C(C)(C)C)cc3)c2C)cn(C)c1=O` [II-4, 4-tert-Butyl-N-{2-methyl-3-[1-methyl-5-(3-methyl-ureido)-6-oxo-1,6-dihydro-pyridin-3-yl]-phenyl}-benzamide], the melting point lay within 262 to 264 °C.

Take `Cn1cc(-c2cccc(NC(=O)c3ccc(C4(C(F)F)CC4)cc3)c2CO)cc(Nc2ccc(C(=O)N3CCOCC3)cn2)c1=O` [II-72, 4-(1-Difluoromethyl-cyclopropyl)-N-(2-hydroxymethyl-3-{1-methyl-5-[5-(morpholine-4-carbonyl)-pyridin-2-ylamino]-6-oxo-1,6-dihydro-pyridin-3-yl}-phenyl)-benzamide]: the IC50 in data set [1] (Table II pyridinones) is < 10 nM.

`Cn1cc(-c2cccc(NC(=O)c3ccc(C(Cl)(Cl)Cl)cc3)c2CO)cc(Nc2ccc(C(=O)N3CCOCC3)cn2)c1=O` [II-74]: the IC50 in data set [1] (Table II pyridinones) came out at 50 nM. This lies in the double-digit nanomolar range.

Regarding `Cn1cc(-c2cccc(NC(=O)c3ccc(C4(Cl)CC4)cc3)c2CO)cc(Nc2ccc(C(=O)N3CCOCC3)cn2)c1=O` [II-75], in data set [1] (Table II pyridinones), the IC50 is < 10 nM.

As for `Cn1cc(-c2cccc(NC(=O)c3ccc([Si](C)(C)C)cc3)c2CO)cc(Nc2ccc(C(=O)N3CCOCC3)cn2)c1=O` [II-76], the IC50 in data set [1] (Table II pyridinones) worked out at 40 nM.

The compound `CCNC(=O)Nc1cc(-c2cccc(NC(=O)c3ccc(C4CC4)cc3)c2CO)cn(C)c1=O` [II-77] displayed a concentration for half-maximal inhibition (IC50) in data set [1] (Table II pyridinones) of 40 nM. This lies in the double-digit nanomolar range.

The compound `Cn1cc(-c2cccc(NC(=O)c3ccc(C4CC4)cc3)c2CO)cc(NC(=O)NCCc2ccccn2)c1=O` [II-78] came in with a 50% inhibitory concentration (IC50) in data set [1] (Table II pyridinones) of 214 nM.

As for `Cn1cc(-c2cccc(NC(=O)c3ccc(C4CC4)cc3)c2CO)cc(NC(=O)NCCc2cccnc2)c1=O` [II-79], 160 nM corresponded to half-maximal inhibition in data set [1] (Table II pyridinones) (IC50).

`CN(C)CCCNC(=O)Nc1cc(-c2cccc(NC(=O)c3ccc(C4CC4)cc3)c2CO)cn(C)c1=O` [II-80] gave a concentration for half-maximal inhibition (IC50) in data set [1] (Table II pyridinones) of 43 nM.

For the compound `Cn1cc(-c2cccc(NC(=O)c3ccc(C(C)(C)C(F)(F)F)cc3)c2CO)cc(Nc2ccc(C(=O)N3CCNCC3)cn2)c1=O` [II-81, N-(2-Hydroxymethyl-3-{1-methyl-6-oxo-5-[5-(piperazine-1-carbonyl)-pyridin-2-ylamino]-1,6-dihydro-pyridin-3-yl}-phenyl)4-(2,2,2-trifluoro-1,1-dimethyl-ethyl)-benzamide], the IC50 in data set [1] (Table II pyridinones) is < 10 nM.

In data set [1] (Table II pyridinones), `Cn1cc(-c2cccc(NC(=O)c3ccc(C4CC4)cc3)c2CO)cc(NC(=O)NCCCN2CCOCC2)c1=O` [II-83] came in with a concentration for half-maximal inhibition (IC50) of 54 nM.

In data set [1] (Table II pyridinones), `Cn1cc(-c2cccc(NC(=O)c3ccc(C4CC4)cc3)c2CO)cc(NC(=O)NCC2CCCO2)c1=O` (centres unmarked) [II-84] yielded a 50% inhibitory concentration (IC50) of 60 nM.

Consider `CCC(O)CNC(=O)Nc1cc(-c2cccc(NC(=O)c3ccc(C4CC4)cc3)c2CO)cn(C)c1=O` (centres unmarked) [II-85], for which the 50% inhibitory concentration (IC50) in data set [1] (Table II pyridinones) is 46 nM.

In the case of `CC(O)CNC(=O)Nc1cc(-c2cccc(NC(=O)c3ccc(C4CC4)cc3)c2CO)cn(C)c1=O` (centres unmarked) [II-86], in data set [1] (Table II pyridinones), the IC50 was 68 nM.

In turn, `CC(C)n1nc(Nc2cc(-c3cccc(NC(=O)c4ccc(C5CC5)cc4)c3CO)cn(C)c2=O)ccc1=O` [II-88] registered an IC50 in data set [1] (Table II pyridinones) of 140 nM.

On to `Cn1cc(-c2cccc(NC(=O)c3ccc(S(F)(F)(F)(F)F)cc3)c2CO)cc(Nc2ccc(C(=O)N3CCOCC3)cn2)c1=O` [II-89], for which the IC50 in data set [1] (Table II pyridinones) is < 10 nM.

Turning to `CCOc1cccc(Nc2cc(-c3cccc(NC(=O)c4ccc(C5CC5)cc4)c3CO)cn(C)c2=O)n1` [II-90], in data set [1] (Table II pyridinones), the 50% inhibitory concentration (IC50) is 81 nM. This counts as double-digit nanomolar.

In data set [1] (Table II pyridinones), `CCn1nc(Nc2cc(-c3cccc(NC(=O)c4ccc(C5CC5)cc4)c3CO)cn(C)c2=O)ccc1=O` [II-91] registered a half-inhibitory concentration (IC50) of 66 nM.

`Cn1cc(-c2cccc(NC(=O)c3ccc(C4CC4)cc3)c2CO)cc(Nc2ccc(=O)n(Cc3ccccc3)n2)c1=O` [II-93] showed an IC50 in data set [1] (Table II pyridinones) of 298 nM. Compared with the last compound, the IC50 is about 4.5-fold higher.

In the case of `Cc1ccc(Nc2cc(-c3cccc(NC(=O)c4ccc(C5CC5)cc4)c3CO)cn(C)c2=O)nn1` [II-94], half-maximal inhibition in data set [1] (Table II pyridinones) (IC50) was put at 24 nM.

`Cn1cc(-c2cccc(NC(=O)c3ccc(C4CC4)cc3)c2CO)cc(Nc2cccnn2)c1=O` [II-95] displayed an IC50 in data set [1] (Table II pyridinones) of 20 nM.

For `Cn1cc(-c2cccc(NC(=O)c3ccc(C(C)(C)C#N)cc3)c2CO)cc(Nc2ccc(C(=O)N3CCOCC3)cn2)c1=O` [II-96], the IC50 in data set [1] (Table II pyridinones) was < 10 nM.

Turning to `Cn1cc(-c2cccc(NC(=O)c3ccc(N4CCCCC4)cc3)c2CO)cc(Nc2ccc(C(=O)N3CCOCC3)cn2)c1=O` [II-97], the IC50 in data set [1] (Table II pyridinones) was found to be 114 nM. That is a sub-micromolar value.

Compound `Cn1cc(-c2cccc(NC(=O)c3ccc(C4CC4)cc3)c2CO)cc(Nc2cnccn2)c1=O` [II-98] returned a concentration for half-maximal inhibition (IC50) in data set [1] (Table II pyridinones) of 90 nM. This IC50 and that of the compound before are within 1.5-fold of each other.

Regarding `Cn1cc(-c2cccc(NC(=O)c3ccc(C4CC4)cc3)c2CO)cc(Nc2ccc(C(=O)N3CCCC3)cn2)c1=O` [II-99], the IC50 in data set [1] (Table II pyridinones) worked out at 11 nM.

In turn, `Cn1cc(-c2cccc(NC(=O)c3ccc(C4CC4)cc3)c2CO)cc(Nc2ccc(C(=O)N3CC(F)(F)C3)cn2)c1=O` [II-100] showed an IC50 in data set [1] (Table II pyridinones) of 31 nM.

For `Cn1cc(-c2cccc(NC(=O)c3ccc(C4CC4)cc3)c2CO)cc(Nc2ccc(C(=O)N3CCC3)cn2)c1=O` [II-101], the IC50 in data set [1] (Table II pyridinones) was < 10 nM.

Consider `Cn1cc(-c2cccc(NC(=O)N3Cc4ccccc4C3)c2CO)cc(Nc2ccc(C(=O)N3CCOCC3)cn2)c1=O` [II-102], for which, in data set [1] (Table II pyridinones), the IC50 is < 10 nM.

In data set [1] (Table II pyridinones), `Cn1cc(-c2cccc(NC(=O)c3ccc(C4CC4)cc3)c2CO)cc(Nc2ccc(N3CCOCC3)nn2)c1=O` [II-103] came in with an IC50 of 14 nM.

The values above are taken from US7943618B2, “Btk protein kinase inhibitors” (Roche Palo Alto LLC, priority 2007, dated 2011).
